Reference: patent publication US11458077B2, “Two-phase cosmetic composition comprising a 4-(3-alkoxy-4-hydroxyphenyl)alkyl ketone” (L'OREAL, priority 2017, dated 2022)

Assay: Solubility of the ketone compound
Assay type: physicochemical

solubility in glycerol (glycerol): very low solubility
solubility in water (water): very low solubility
Compound: CCOc1cc(CCC(C)=O)ccc1O [ketone compound, 4-(3-Ethoxy-4-hydroxyphenyl)butan-2-one]
